# In US8592421B2, “Cyclic bioisosters of purine system derivatives and a pharmaceutical composition based thereon” (priority 2003, dated 2013):
# Assays:
# [1] = Electrochemical activity: polarographic reduction on mercury dripping electrode; assay type: physicochemical; details: for i: 2.0% sodium chloride background, 9·10^−4 M; for i / −E1/2: 37° C., forward trace, average for the group of compounds; for −E1/2: vs SCE
# Protocol: The study was carried out on a general-purpose polarograph PU-1 with a two-coordinate recorder of the “LKD” type using a three-electrode thermostatically controlled polarographic cell and mercury dripping electrode (MDE) with forced separation of the drop and a dropping period of 0.5 second. A platinum wire was used as an auxiliary electrode and a saturated calomel electrode (SCE) was used as a control electrode.
# 2.0% solutions of sodium chloride having pH 7.0, 7.2, 7.4, 7.6 were used as a background; the pH values of the background solution were corrected by a solution of sodium hydroxide. The polarographic cell was filled with 5.0 ml of the background solution and for 5 minutes was purged with nitrogen for removing the dissolved oxygen. Then 0.5 ml of solution of the studied substance was added to the background solution, and the polarogram was recorded as a polarographic wave. The concentration of the compounds in the polarographic cell was 9·10^−4 M.
# The pH was measured on the pH-meter with an accuracy of +0.05 pH units. The polarographic measurements were carried out at a temperature of 37° C. The recording of polarograms of the investigated materials was effected under conditions of DC current at a scanning rate of the potential 10.0 mV/s with a active scanning stroke from a potential 0 to −0.5 V and sweep retrace from a −0.5 V to 0. The electric-current sensitivity was 5.0 mkA. The scale by the coordinate of the potentials was 50.0 mV/cm. The values of potentials of the half-wave E1/2 of the investigated materials are given with respect to the SCE potential.
# The polarogram parameters such as a limiting current ilim and E1/2 were determined by the graphic method. The number of electrons participating in the reaction was calculated on the basis of the analysis of the polarographic wave using the Geirovsky-Ilkovich equation.
# The calculation of the number of electrons participating in the reduction reaction was effected using the Geirovsky-Ilkovich equation: […]
# [2] = test system: thrombocytes; test: ADP-induced aggregation of thrombocytes in vitro (Born method, plasma enriched with thrombocytes); assay type: cell-based, rabbit; details: 3-minute incubation, ADP 10^−5 M
# Protocol: The aggregation of thrombocytes was studied by the Born method based on determination of the changes in the optical density of plasma enriched with thrombocytes after its incubation with an aggregation inductor.
# Adenozinediphosphoric acid (ADP) was selected as an aggregation inductor, which in fact is an aggregation generator. Use was made of a sample (registration number 885) of the Sigma Diagnostics Company (USA) in final concentration of 10^−5 M.
# The experiments were carried out on male rabbits of the “Chinchilla” breed having a mass of 2.7±0.3 kg. 18-24 hours prior to the experiment they were deprived of feed while preserving free access to water.
# To obtain plasma enriched with thrombocytes, blood was taken from a cut of a marginal vein of the rabbit ear, the sample was stabilized with 3.8% of sodium citrate solution in a ratio of 9:1 and centrifuged at 200 g (1000 rev/min) for 10 minutes. The top supernatant layer enriched with thrombocytes was transferred by an automatic dropper into a silicone test tube and kept at 37° C. The plasma enriched with thrombocytes contained, on the average, […]. If this content exceeded the specified 3×10^8 blood platelets in 1 liter, this sample was diluted to the necessary concentration with plasma deprived of thrombocytes, which was obtained by centrifuging blood at 650 g during 10 minutes.
# The measurements of the optical density of the samples were made on two-channel aggregometer of the “Chronolog” Company (USA). A flask containing 490 mkl of plasma rich with thrombocytes was placed in a device, into which a magnetic agitator covered with Teflon was lowered. The index of maximum amplitude of aggregation (MA) in percent of a fall of the plasma optical density under effect of the aggregation inductor was recorded. The control index MA of plasma was compared with the MA of plasma incubated for 3 minutes with different concentrations of the compounds: from 10^−3 to 10^−7 in vitro experiments or with plasma obtained 15, 30, 60 and 120 minutes after intravenous administration of different doses of the compounds in vivo experiments.
# The process of aggregation of thrombocytes was recorded with the help of a computer; on the monitor screen the there were depicted curves reflecting changes of the optical density of the plasma enriched which was taken as a standard 100% compared to the optical density of the non-thrombocyte plasma taken for 0% content of thrombocytes.
# Under in vitro conditions a flask was filled with blood plasma enriched with thrombocytes, to which an aggregation inductor ADP was added at a concentration of 10^−5 M, incubated for 3 minutes, and then the compounds according to the invention were introduced directly into the flask. Their action by aggregation of thrombocytes was studied after 3-minute incubation in a wide range of concentrations from 10^−3 to 10^−7 M to minimum concentration of 10^−7M not inducing no effect of suppressing the aggregation.
# [3] = test system: embryonic fibroblasts of mouse NIH-3T3; test: Effect on endocellular pHi of fibroblasts (microspectrofluorimetry with FDA / BCECF-AM); assay type: cell-based; details: 10 mkM in medium with serum
# Protocol: The effect of the compounds according to the invention on the endocellular pH, embryonic fibroblasts of mouse NIH-3T3 supplied by the All-Russian Collection of Cellular Cultures of the Institute of Cytology of the Russian Academy of Sciences St. Petersburg was investigated. The cells were grown in the DMEM (Sigma) medium containing 2.2 g/l of sodium bicarbonate with addition of 80.0 mkg/ml of gentamicin and 10.0% embryonal veal serum at a temperature of 37° C. in an atmosphere containing 5.0% of carbon dioxide. For these experiments use was also made of a medium buffer with 5.0 mM of HEPES and 15.0 mM of sodium bicarbonate without serum or with addition of 5.0% serum. The cells were calculated with the help of a hemocytometer. A share of the dead cells was determined by colouring trypan blue.
# The measurements of the endocellular pHi were carried out with the help of colorants FDA (Sigma) and BCECF-AM (Calbiochem) on a microspectrofluorimeter by a standard technique (Koshevoy Yu. V., Akatov V. S., Grobova M. E. Microspectrofluorimeter for measuring endocellular pH (micro pH)”. Devices and equipment for studies in the field of physical-and-chemical biology and biotechnology. Pushchino, 1990. P. 8-14).
# The cells at a temperature of 37° C. were colored within 5 minutes with 5.0 mkM PDA that before the colouring was prepared from a 10.0 mM solution in acetone by dilution for 30 minutes in a phosphatic buffer to 0.1 mM or 2.0 mkM 1.0 mM solution BCECF-AM in DMSO.
# The two-wave method of determining pHi was used based on the ratio intensities of fluorescence of the cells on two wavelengths (Akatov V. S. et all), “Endocellular pH and substrate dependence of proliferation of fibroblasts of Chinese hamster, Cytology, 1991, 33 (7), p. 86-94). The fluorescence was excited by light at λ=490 nm, the emission was recorded simultaneously with two photomultipliers on wavelengths λ=535 nm and λ=570 nm. The K-ratio of the fluorescence on two wavelengths was determined with a deduction of the background fluorescence of the medium near the investigated cells for 40-60 individual cells, which are then averaged taking into account the measurement error. A thermostatically controlled table was used that allowed measurements to be conducted at a temperature of 37° C. An account was taken for the photodynamic damage of the pigmented cells during long-time continuous illumination by excited light. The readings were taken from a section of the preparation exposed to light for not more than 5 minutes.
# The calibration curves for determining the absolute pHi values by magnitude K were constructed using the Thomas technique (Thomas J. A., Bushbaum R. N., Zimniak A. w Racker E. “Intracellular pH measurements in Ehrlich ascites tumor cells utilizing spectroscopic probe generated in situ”, Biochemistry, 1979, v. 18, p. 2210-2218), for which case the pigmented cells treated for 5-10 minutes with carboxyacidic nigericyn (Calbiochem) at a concentration of 5-10 mkg/ml was placed in a solution with a high content of potassium—130 mM KCl, 1.0 mM MgCl2, 20.0 mM of HEPES) and with pH values from 6.2 to 7.6. The K values were measured in the media with different pH assuming that pHi of the cells equals to the pH of the medium due to the action of nigericyn, which exchanges potassium ions for protons and at a high content of potassium in the medium counterbalances the pH of the medium and cells. Calibration curves were used based on the fluorescence of same medium with addition of 5.0 mkM of fluorescence or BCECF were used to the control the stability of the of the instrument readings.
# The cells were colored by pigment BCECF-AM and pHi was measured 10 minutes after incubation in the medium with an appropriate pH value. […]
# [4] = test system: embryonic fibroblasts of mouse NIH-3T3; details: cells of mice NSO and NIH-3T3, 1-5 mkM, within 15-20 minutes; cited from earlier work
# [5] = test system: synthase of nitrogen oxide (NOC); test: Morphine abstinence model: activity of synthase of nitrogen oxide (NOC), radiometric [3H]L-citrulline method; assay type: in vivo, rats Wistar; details: morphinized rats (FIG. 13)
# [6] = Morphine abstinence model: thymus condition (mass, nitrites); assay type: in vivo, rats; details: Administration of morphine; control 230 ± 14
# Source text: The spectrometric method is based the reaction of nitrites with the Griss reagent (a mixture of 2% solution of sulfanilamide and 0.2% N-(1-naphthyl)ethylene diamine. At the first step the nitrite reacts with sulfanilamide with formation of diazonium salt, and then with the second component to form azo dye with an adsorption maximum at 540 nm. For reduction of nitrates into nitrites, a fermentative method was used with bacterial reductase nitrate (Grisham M. B. et al., 1995). The samples of plasma and supernathant of the liver deproteinizated at 100° C. for 5 minutes incubated for 30 minutes at 37° C. in 50.0 mM of HEPES pH 7.4 in the presence of 0.2 unit/ml of Aspergillus reductase nitrate, 5.0 mkM of FAD and 0.1 mM of NAD-Ph. At the end of the reaction lactate dehydrogenase and pyruvate were added for isolation of NAD-Ph interfering with the Griss reaction. Then the Griss reagent was added and after 10-minute incubation the light absorption of the samples was measured at 540 nm. To amount of NOX^− was calculated using sodium nitrate as a standard.
# The effect of the compounds according to the invention on the condition of the thymus of the rats was also investigated: a control group, an experimental group of morphinized animals and an experimental group of animals were first morphinized and then injected with the compounds according to the invention. The experiment was carried out similarly to that described above.
# [7] = test system: Ca^2+-independent isoform NOC; test: Morphine abstinence model: calcium-independent NOC in liver; assay type: in vivo, rats Wistar; details: administration of morphine (FIG. 13)
# [8] = test system: Ca^2+-dependent isoform NOC; test: Morphine abstinence model: calcium-dependent NOC in liver; assay type: in vivo, rats Wistar; details: administration of morphine (FIG. 13)
smiles,measurement,setting,value
"Nc1cccc2c(=O)n([C@@H]3O[C@H](CO)[C@@H](O)[C@H]3O)[nH]c(=O)c12.[Na] [Compound 10, sodium salt of 5-amino-2-(CP (β-D-ribofuranosile)benzo[d]-3H-pyridazine-1,4-dione]",number of electrons participating in the reduction reaction,[1]; calculated with Geirovsky-Ilkovich equation,4.09
same,i,[1]; pH 7.0,0.23 ± 0.03 mkA
same,−E1/2,[1]; pH 7.0,0.092 ± 0.02 V
same,i,[1]; pH 7.2,0.30 ± 0.01 mkA
same,−E1/2,[1]; pH 7.2,0.09 ± 0.01 V
same,i,[1]; pH 7.4,0.29 ± 0.02 mkA
same,−E1/2,[1]; pH 7.4,0.092 ± 0.02 V
same,i,[1]; pH 7.6,0.31 ± 0.02 mkA
same,−E1/2,[1]; pH 7.6,0.09 ± 0.01 V
same,half-wave potential more positive at reverse stroke compared to forward stroke,[1]; polarograms of reverse stroke,30.0 mV
same,"MA - fall of optical density of plasma, % to the standard","[2]; 10^−3 M, control 60.8 ± 3.4",46.2 ± 2.7 %
same,"MA - fall of optical density of plasma, % to the standard","[2]; 10^−4 M, control 60.0 ± 2.1",48.7 ± 2.4 %
same,"MA - fall of optical density of plasma, % to the standard","[2]; 10^−5 M, control 52.5 ± 2.1",40.2 ± 4.0 %
same,"MA - drop of optical density, %","[2]; 10^−6 M, control 52.8 ± 1.8",48.4 ± 2.4%
same,"MA - drop of optical density, %","[2]; 10^−7 M, control 51.5 ± 2.1",49.8 ± 2.0%
"CC[C@@]1([C@@H]2O[C@@H]([C@H]3O[C@@](O)(CO)[C@H](C)C[C@@H]3C)C[C@@H]2C)CC[C@H]([C@]2(C)CC[C@]3(C[C@H](O)[C@@H](C)[C@@H]([C@@H](C)[C@@H](OC)[C@H](C)C(=O)O)O3)O2)O1 [monensine, reference compound]",rise of pHi,[3],0.12 pH unit
same,increase of pHi,[4],0.2 unit
"CN1CC[C@]23c4c5ccc(O)c4O[C@H]2[C@@H](O)C=C[C@H]3[C@H]1C5 [Morphine, morphine, reference compound]",total NOC activity in the liver compared to the control,[5],did not change
same,Thymus mass,[6],145 ± 9 mg
same,activity of the calcium-independent form NOC in the liver,[7],decrease of activity
same,activity of the calcium-dependent form NOC in the liver,[8],rise of activity
